Test results: the supplement of paper PMC12532568

Test system: Danio rerio larvae Tg(actc1b:ZsGreen-LC3), 3 dpf
Experiment: LC3 puncta relative area vs vehicle (mean) (log2 fold change); higher = more autophagy
Conditions: treatment time 16 h
Method: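 Transgenic ZsGreen-LC3 zebrafish larvae (2 dpf) were treated for 16 h with natural bioactives at 10, 50, 100 or 250 µM. Skeletal-muscle LC3 puncta area was measured by high-content imaging with or without 4 h of 100 mM NH4Cl, normalised to vehicle, and reported as the mean log2 fold change over 4–21 larvae.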

Compound | LC3 puncta (log2) (NH4Cl: + NH4Cl, 10 µM) | LC3 puncta (log2) (NH4Cl: + NH4Cl, 50 µM) | LC3 puncta (log2) (NH4Cl: + NH4Cl, 100 µM) | LC3 puncta (log2) (NH4Cl: + NH4Cl, 250 µM) | LC3 puncta (log2) (NH4Cl: - NH4Cl, 10 µM) | LC3 puncta (log2) (NH4Cl: - NH4Cl, 50 µM) | LC3 puncta (log2) (NH4Cl: - NH4Cl, 100 µM) | LC3 puncta (log2) (NH4Cl: - NH4Cl, 250 µM)
CC(O)CC(=O)O (stereo unspecified) [Sodium 3-hydroxybutyrate] | 0.123 | 0.569 | 0.8 | 0.884 | 0.0599 | 0.278 | 0.0997 | 0.295
CCCCCCCCCCCCCCCCCC(=O)O [stearic acid] | 0.718 | 0.677 | 0.635 | 1.13 | 0.39 | 0.392 | 0.127 | 0.245
NC(=O)c1ccc[n+]([C@@H]2O[C@H](CO)[C@@H](O)[C@H]2O)c1 [Nicotinamide riboside chloride] | 0.917 | 0.613 | 0.663 | 0.76 | 0.148 | -0.293 | 0.0672 | 0.257
O=C(O)C=CC(=O)O [Butenedioic acid] | 0.693 | 1.1 | 1.29 | 1.14 | 0.588 | 0.758 | 0.837 | 0.447
CC(=O)CC(=O)O [Lithium acetoacetate] | 0.433 | 0.388 | 0.24 | 0.594 | 0.304 | -0.266 | -0.279 | 0.0398
O=c1oc2cc(O)ccc2c2ccccc12 [Urolithin B] | 0.159 | 1.38 | 1.04 | – | 0.474 | 0.688 | 0.767 | –
CCCCCC=CCC=CCCCCCCCC(=O)O [Linoaleic acid] | 0.722 | 1.36 | 1.01 | – | 0.542 | 0.956 | 0.433 | –
O=c1c(O)c(-c2ccc(O)c(O)c2)oc2cc(O)cc(O)c12 [Quercetin] | 0.773 | 0.126 | 0.298 | 0.298 | -0.173 | -0.502 | -1.19 | -0.815
C[C@H](O)CCO [(S)-1,3-Butylene Glycol] | 0.505 | -0.0626 | 0.509 | – | -0.143 | -0.512 | -0.016 | 0.014
Cc1ccc(C(C)C)cc1O [Carvacrol] | 0.565 | 1.07 | 1.84 | 1.67 | 0.493 | 0.93 | 1.08 | 1.92
CC(=O)OC/C=C(C)/C=C/C=C(C)/C=C/C1=C(C)CCCC1(C)C [Retinol acetate] | 0.716 | 0.504 | 0.948 | 1.18 | 0.543 | 0.167 | 0.303 | 1.12
O=C(O)c1cccnc1 [Nicotinic acid] | 0.718 | 0.758 | 0.79 | 0.941 | 0.0747 | 0.284 | 0.456 | 0.418
